From US10464957B2, “Oxidized lipids and methods of use thereof” (Vascular Biogenics Ltd., priority 2014, dated 2019)

Tests used:
nephrectomized rats = assay: 5/6 nephrectomy chronic renal disease rat model (focal and segmental glomerulosclerosis); type: in vivo, Sprague Dawley (SD) Rats
Protocol: Male Sprague Dawley (SD) Rats (Harlan Laboratories, Israel) with an initial weight of 200 g were housed 2-3 per cage in IVC cages in dedicated HVAC (heat, ventilation, air conditioning animal facility at a temperature of 22±2° C. and RH (relative humidity) of 55±15%). Temperature and humidity were monitored continuously. The facility had no exposure to outside light and was maintained on automatic alternating cycles of 12 hours of light and 12 hours of dark. Animals were provided with a commercial rodent diet (Harlan Teklad TRM Rat/Mouse Diet) ad libitum and allowed free access to autoclaved water, supplied to each cage via polysulphone bottles with stainless steel sipper tubes. All animal work was approved by the Animal Care and Use Committee of Israel (IL-13-03-027).
Rats were divided into three groups: (1) Healthy rats (n=3) in group A, (2) Sham group—subjected to chirurgical process but without kidney mass reduction (n=3) in group B, and (3) the rest were induced with chronic renal failure (n=32). Chronic renal failure was induced by a two stage (5/6) nephrectomy (Nx), with subtraction firstly of about ⅔ of the left kidney by left flank incision and, one week later, complete removal of the right kidney. General anesthesia consisted of intraperitoneal injection of ketamine 100 mg/kg and xylazine 20 mg/kg (0.85 ml ketamine+0.15 ml xylazine for each ml preparation; 1 μl/g BW was injected I.P).
One week following the second surgery, rats were randomly assigned to the following experimental groups:
Nephrectomized, orally administered with VB-703 4 mg/kg (n=8); and
Nephrectomized, orally administered with telmisartan 10 mg/kg as positive control (n=8).
Body weight (BW) was monitored throughout the study and rats were treated by oral gavage according to their body weight for 7 weeks. Rats were sacrificed by CO2 inhalation 8 weeks from removal of the right kidney (2nd surgery).
Proteinuria and albuminuria was determined in urine specimens, collected during a 24-hour period, from animals housed in cages at 4 weeks (3 w of treatment) and 8 weeks (7 w of treatment) after the subtotal nephrectomy (2nd surgery). Urine samples were analyzed for: glucose, urea, sodium, potassium, creatinine, total protein, and albumin.
Upon sacrifice, at 8 weeks, kidneys were collected, weighed and fixed in 4% formaldehyde.
For light microscopy, paraffin-embedded tissue slides of 4 μm were stained with Periodic Acid-Schiff (PAS) reagent, Masson's Trichrome and Hematoxylin & Eosin.
Glomerular sclerosis index. Glomerulosclerosis was assessed by PAS-stained sections using a semiquantitative scoring system. The extent of glomerulosclerosis was evaluated by examining mostly 100 randomly selected glomeruli at a magnification of ×400 and applying a score system according to the percentage of sclerosed glomerular area. The score was graded from 0 to 4: (0=0% area; 1=1-25%; 2=26-50%, 3=51-75%, 4=76% and above). The mean of all scored glomeruli was presented. Moreover, the extent of global and segmental glomerulosclerosis was evaluated in the same glomeruli, where <80% sclerosis was referred to as segmental and >80% was referred to as global.
Glomerular area. The glomerular area of mostly 100 randomly selected glomeruli at a magnification of ×100 was quantitated by counting squares covered by glomeruli area using a grid and the mean glomeruli area was calculated.
Renal tissues were fixed in 4% formaldehyde and embedded in paraffin. The paraffin-embedded tissues were then cut to form tissue slides of 4 μm. Immunohistochemistry of the paraffin-embedded tissue slides was analyzed using antibodies in the following concentration: monoclonal mouse anti rat CD-68 (ED-1, Serotec MCA341) 1:25. For quantitation of interstitial CD68+ staining, the number of positive cells was counted in 20 randomly selected non-overlapping fields per animal, and the mean value was presented. […]

[1] = system: MCP-1-induced signaling in human monocytes (THP-1 cell line); assay: MCP-1-induced signaling, western blot; type: cell-based; settings: 20 min pretreatment, 50 ng/ml MCP1, THP-1
Protocol: THP-1 cells (10^6/ml) were pretreated for 20 min with VB-201 or VB-701 at the doses indicated in FIG. 4, or with solvent, followed by activation with 50 ng/ml MCP1, or were untreated (“Unt”). Cells were washed and resuspended in lysis buffer containing 1:100 dithiothreitol (DTT), phosphatase and protease inhibitors (Thermo Scientific). Samples were loaded onto a precast Criterion TGX gel (Bio-Rad, Hemel Hempstead, UK) and transferred onto nitrocellulose membrane. Blots were blocked with 5% milk or BSA in Tris buffered saline and Tween 20 (TBST) for 1 h, followed by incubation with primary and secondary antibodies. Membranes were developed using an ECL kit (Thermo Scientific). The following antibodies were used for immunoblotting:
Primary antibodies: p-ERK1/2 (Cat. No. M8159; 1:10000) was purchased from Sigma (Israel). p-AKT (Cat. No. 4060; 1:1000) was purchased from Cell Signaling Technology (Danvers, Mass.). αTubulin served as a loading control and was purchased from Sigma (Israel).
Secondary antibodies: HRP donkey anti-rabbit (1:5000) and HRP goat anti-mouse (1:3000) were from Jackson ImmunoResearch (West Grove, Pa., USA). HRP donkey anti-goat (1:5000) was from Santa Cruz Biotechnology.

[2] = system: human monocytes (primary CD14+); assay: Chemokine-induced cell migration trans-well assay; type: cell-based; settings: RANTES 100 ng/ml and MCP-1 50 ng/ml, 2-4 hours, FACS count
Protocol: Venous blood samples were obtained from healthy male donors in compliance with the Institutional Review Board at the Sheba Medical Center, Ramat Gan, Israel. PBMCs were isolated on Ficoll-Paque PLUS (GE Healthcare, Uppsala, Sweden) using 50 ml Leucosep tubes (Greiner Bio-One, Frickenhausen, Germany). Cells were washed in PBS (Kibbutz Beit Haemek, Israel) and incubated at 4° C. for 15 minutes in a buffer containing PBS and 0.5% bovine serum albumin (BSA) with human CD14 microbeads (Miltenyi Biotec, Bergisch Gladbach, Germany).
Cells (10^6/ml) were pretreated for 20 min with VB-201 or VB-701 at the doses indicated in FIG. 5, or with solvent (Sol).
To test for chemokine-induced cell migration, RANTES (100 ng/ml; Cat. No. 300-06, PeproTech, Israel) and MCP-1 (50 ng/ml; Cat. No. 300-04, PeproTech, Israel) were dissolved in RPMI-1640 medium supplemented with 0.5% fetal bovine serum (FBS) and placed at the lower chamber of QCM 24-well, […], migration assay plates (Corning-Costar, Corning, N.Y.). Cells (3×10^5) were seeded in the upper chamber and incubated for 2-4 hours. Subsequently, the number of cells which migrated to the lower compartment was determined by fluorescence-activated cell sorting (FACS).

[3] = Nx rats, VB-703 4 mg/kg, Telmisartan 10 mg/kg, 8 weeks, Mean ± S.E
[4] = VB-703 4 mg/kg, telmisartan 10 mg/kg, oral 7 weeks, vs Nx PBS 0.5% Eth

| Structure (SMILES) | Glomerular sclerosis Global % (nephrectomized rats; [3]) | Glomerular sclerosis Global & Segmental % (nephrectomized rats; [3]) | Glomerular sclerosis Segmental % (nephrectomized rats; [3]) | urinary albumin/creatinine/day ratio (nephrectomized rats; VB-703 4 mg/kg oral, at the termination of the study (8 weeks)) | glomerular and interstitial monocyte/macrophage infiltration (CD68 positive cells) (nephrectomized rats; VB-703 4 mg/kg, telmisartan 10 mg/kg, 8 weeks) | reduction of damaged glomeruli percent (nephrectomized rats; [4]) | reduction of sclerotic glomeruli (nephrectomized rats; [4]) | formation of p-AKT and p-ERK induced by MCP1 [1] | chemokine-induced migration of human monocytes [2] |
| --- | --- | --- | --- | --- | --- | --- | --- | --- | --- |
| CCCCCCCCCCC(CCCCCCCC)COC[C@H](COP(=O)([O-])OCC[n+]1ccccc1)OCCCCC(=O)O (stereo partly drawn) [VB-703, (R)-1-(2′-octyl)dodecyl-2-(4′-carboxy)butyl-sn-glycero-3-phosphoric acid pyridiniumethyl ester] | 1.9 ± 1.55% | 24.7 ± 3.77% | 22.9 ± 2.83% | significantly improved | did not produce a significant effect | 38% | 49% | – | – |
| CCCCCCCCCCCCCCCCOCC(COP(=O)([O-])OCC[N+](C)(C)C)OCCCCC(=O)O (stereo not drawn) [VB-201, 1-hexadecyl-2-(4′-carboxy)butyl-glycero-3-phosphocholine, reference compound] | – | – | – | – | – | – | – | inhibit | inhibit |
